Reference: patent publication US20240287138A1, “CYCLIC PEPTIDES FOR INHIBITING TNF RECEPTOR 1 ACTIVITY” (Merck Sharp & Dohme LLC, priority 2023, published 2024)
Numbered stars: 1 amine (or outer) side, 2 acyl side, 3 side chain; on linkers, the order of the positions; unused ones are H or OH. Bridge positions count the residues as written; N and C are the ends. Square brackets hold non-standard residues; d marks the D form. Peptide text beside a SMILES is read from it. Trp(βS-Me,7-OMe) = COc1cccc2c([C@H](C)[C@H](N)C(=O)O)c[nH]c12; Ala(1-bicyclo(1.1.1)pentyl) = N[C@@H](CC12CC(C1)C2)C(=O)O; Phe(4-CH2COOH) = N[C@@H](Cc1ccc(CC(=O)O)cc1)C(=O)O; Trp(7-Cl) = N[C@@H](Cc1c[nH]c2c(Cl)cccc12)C(=O)O; Phe(4-CONH2) = NC(=O)c1ccc(C[C@H](N)C(=O)O)cc1; Phe(4-COOH) = N[C@@H](Cc1ccc(C(=O)O)cc1)C(=O)O; Trp(7-aza) = N[C@@H](Cc1c[nH]c2ncccc12)C(=O)O; Phe(4-CH2NH2) = NCc1ccc(C[C@H](N)C(=O)O)cc1; Trp(1-Me) = Cn1cc(C[C@H](N)C(=O)O)c2ccccc21; Pip(5R-OH) = O=C(O)[C@@H]1CC[C@@H](O)CN1; αMeW = C[C@](N)(Cc1c[nH]c2ccccc12)C(=O)O; X1 = O=C([C@@H]1CC[C@H](N[*:1])C1)[*:2]; 1Nal = N[C@@H](Cc1cccc2ccccc12)C(=O)O; 2Nal = N[C@@H](Cc1ccc2ccccc2c1)C(=O)O; 4Pal = N[C@@H](Cc1ccncc1)C(=O)O; NMeE = CN[C@@H](CCC(=O)O)C(=O)O; NMeDab = CN[C@@H](CCN)C(=O)O; NEtAla = CCN[C@@H](C)C(=O)O; αMeS = C[C@](N)(CO)C(=O)O; NMeA = CN[C@@H](C)C(=O)O; Nle = CCCC[C@H](N)C(=O)O; Sar = CNCC(=O)O

Tests used:
[1] = target: T1, human TNFR1 extracellular domain (ECD) protein (Homo sapiens, UniProt P19438); assay: SPR binding affinity to captured human TNFR1 ECD
T1 construct: HRV 3C protease cleavage site (C); 6His (C, cleaved yes); made in house; host or cells: Sf21 insect cells (baculovirus), secreted
T1 sequence (P19438 30-211): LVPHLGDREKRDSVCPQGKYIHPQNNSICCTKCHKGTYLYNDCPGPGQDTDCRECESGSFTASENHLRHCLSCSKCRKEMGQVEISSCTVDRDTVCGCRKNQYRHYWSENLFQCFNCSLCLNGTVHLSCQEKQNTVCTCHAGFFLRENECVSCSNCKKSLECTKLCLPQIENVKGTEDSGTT
Method in brief: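 Peptides are tested against captured biotin-tagged human TNFR1 ECD, with parallel TNFR2 ECD binding to check selectivity. Buffer: 10 mM HEPES pH 7.4, 150 mM NaCl, 3 mM EDTA, 0.05% P20, 2% DMSO.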

[2] = target: T2, human soluble TNFR1 (sTNFR1) (Homo sapiens, UniProt P19438); assay: Human sTNFR1-peptide displacement assay (LanthaScreen Eu TR-FRET binding assay)
T2 construct: made in house; host or cells: Sf21 (baculovirus)
T2 sequence (P19438 with tags, fused parts or gaps): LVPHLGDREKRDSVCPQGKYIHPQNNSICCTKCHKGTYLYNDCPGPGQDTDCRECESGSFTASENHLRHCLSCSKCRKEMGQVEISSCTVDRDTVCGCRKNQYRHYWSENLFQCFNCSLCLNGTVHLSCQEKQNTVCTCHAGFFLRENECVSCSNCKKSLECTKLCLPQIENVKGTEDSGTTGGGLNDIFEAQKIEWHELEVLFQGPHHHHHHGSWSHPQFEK
Method in brief: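 Readout is the 665/615 nm TR-FRET ratio (Eu anti-His donor, streptavidin-Alexa647 acceptor), normalized to DMSO and saturating displacer, fit by Morrison-based five-parameter logistic for Kd^app. His-tagged sTNFR1 (1-211) prebound to 100 nM biotinylated peptide SEQ ID NO.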

Row | SMILES | Kd [1] [nM] | IC50 [2] [nM] | Kd [2] [nM]
1 | CCCC[C@@H]1NC(=O)CSC[C@@H](C(N)=O)NC(=O)[C@H](Cc2cn(C)c3ccccc23)NC(=O)CN(C)C(=O)[C@H](Cc2ccc(O)cc2)NC(=O)[C@H](Cc2ccc(C(=O)O)cc2)NC(=O)[C@](C)(CO)NC(=O)[C@H](Cc2c[nH]c3c(Cl)cccc23)NC(=O)[C@H](Cc2ccncc2)NC(=O)[C@H](CC(N)=O)NC(=O)[C@H](CCC(=O)O)N(C)C(=O)[C@H](Cc2c[nH]c3ncccc23)NC(=O)[C@H](CO)NC(=O)[C@H](Cc2ccncc2)NC1=O [SEQ ID NO. 223] ({CH2CO}-[Nle][4Pal]S[Trp(7-aza)][NMeE]N[4Pal][Trp(7-Cl)][αMeS][Phe(4-COOH)]Y[Sar][Trp(1-Me)]C-NH2; thioether N-14) | 0.3 | 0.39 | 0.48
2 | CCCC[C@@H]1NC(=O)CSC[C@@H](C(N)=O)NC(=O)[C@](C)(Cc2c[nH]c3ccccc23)NC(=O)CN(C)C(=O)[C@H](Cc2ccc(O)cc2)NC(=O)[C@H](Cc2ccc(CC(=O)O)cc2)NC(=O)[C@](C)(CO)NC(=O)[C@H](Cc2c[nH]c3c(Cl)cccc23)NC(=O)[C@H](Cc2ccncc2)NC(=O)[C@H](CC(N)=O)NC(=O)[C@H](CCC(=O)O)N(C)C(=O)[C@H](Cc2c[nH]c3ncccc23)NC(=O)[C@H](CO)NC(=O)[C@H](Cc2ccc(CN)cc2)NC1=O [SEQ ID NO. 224] ({CH2CO}-[Nle][Phe(4-CH2NH2)]S[Trp(7-aza)][NMeE]N[4Pal][Trp(7-Cl)][αMeS][Phe(4-CH2COOH)]Y[Sar][αMeW]C-NH2; thioether N-14) | 0.4 | 1.7 | 
3 | C[C@H]1C(=O)N[C@@H](CC(N)=O)C(=O)N[C@@H](Cc2ccncc2)C(=O)N[C@@H](Cc2ccc3ccccc3c2)C(=O)N[C@@](C)(CO)C(=O)N[C@@H](Cc2ccc(C(=O)O)cc2)C(=O)N[C@@H](Cc2ccc(O)cc2)C(=O)N(C)CC(=O)N[C@@H](Cc2c[nH]c3ccccc23)C(=O)N[C@H](C(N)=O)CSCC(=O)N[C@@H](CCCCN)C(=O)N[C@@H](Cc2ccncc2)C(=O)N[C@@H](CO)C(=O)N[C@@H](Cc2cccc3ccccc23)C(=O)N1C [SEQ ID NO. 227] ({CH2CO}-K[4Pal]S[1Nal][NMeA]N[4Pal][2Nal][αMeS][Phe(4-COOH)]Y[Sar]WC-NH2; thioether N-14) | 2.3 | 4.02 | 
4 | CCCC[C@@H]1NC(=O)[C@@H]2CC[C@@H](C2)NC(=O)[C@H]([C@@H](C)c2c[nH]c3c(OC)cccc23)NC(=O)CN(C)C(=O)[C@H](Cc2ccc(C(N)=O)cc2)NC(=O)[C@H](Cc2ccc(C(N)=O)cc2)NC(=O)[C@](C)(CO)NC(=O)[C@H](Cc2c[nH]c3c(Cl)cccc23)NC(=O)[C@H](Cc2ccncc2)NC(=O)[C@H](CC(N)=O)NC(=O)[C@H](CCC(=O)O)N(C)C(=O)[C@H](Cc2c[nH]c3ccccc23)NC(=O)[C@@H]2CC[C@@H](O)CN2C(=O)[C@H](Cc2ccncc2)NC1=O [SEQ ID NO. 229] (cyclo([4Pal][Trp(7-Cl)][αMeS][Phe(4-CONH2)][Phe(4-CONH2)][Sar][Trp(βS-Me,7-OMe)][X1][Nle][4Pal][Pip(5R-OH)]W[NMeE]N)) | 0.14 |  | 0.1
5 | CCCC[C@@H]1NC(=O)CSC[C@@H](C(N)=O)NC(=O)[C@](C)(Cc2c[nH]c3ccccc23)NC(=O)CN(C)C(=O)[C@H](Cc2ccc(O)cc2)NC(=O)[C@H](Cc2ccc(C(=O)O)cc2)NC(=O)[C@](C)(CO)NC(=O)[C@H](Cc2c[nH]c3c(Cl)cccc23)NC(=O)[C@H](Cc2ccncc2)NC(=O)[C@H](CC(N)=O)NC(=O)[C@H](CCC(=O)O)N(C)C(=O)[C@H](Cc2c[nH]c3ncccc23)NC(=O)[C@H](CCN)N(C)C(=O)[C@H](Cc2ccncc2)NC1=O [SEQ ID NO. 231] ({CH2CO}-[Nle][4Pal][NMeDab][Trp(7-aza)][NMeE]N[4Pal][Trp(7-Cl)][αMeS][Phe(4-COOH)]Y[Sar][αMeW]C-NH2; thioether N-14) | 1.9 | 2.63 | 
6 | CCN1C(=O)[C@H](Cc2c[nH]c3c(Cl)cccc23)NC(=O)[C@H](CO)NC(=O)[C@H](Cc2ccncc2)NC(=O)[C@H](CC23CC(C2)C3)NC(=O)CSC[C@@H](C(N)=O)NC(=O)[C@H](Cc2c[nH]c3ncccc23)NC(=O)CN(C)C(=O)[C@H](Cc2ccc(O)cc2)NC(=O)[C@H](Cc2ccc(C(=O)O)cc2)NC(=O)[C@](C)(CO)NC(=O)[C@H](Cc2c[nH]c3ncccc23)NC(=O)[C@H](Cc2ccc(C(=O)O)cc2)NC(=O)[C@H](CC(N)=O)NC(=O)[C@@H]1C [SEQ ID NO. 232] ({CH2CO}-[Ala(1-bicyclo(1.1.1)pentyl)][4Pal]S[Trp(7-Cl)][NEtAla]N[Phe(4-COOH)][Trp(7-aza)][αMeS][Phe(4-COOH)]Y[Sar][Trp(7-aza)]C-NH2; thioether N-14) | 0.7 | 3.19 | 2.15
